Source: ChEMBL document CHEMBL1201862, “PubChem BioAssay data set” (2004)
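How tested: cells in 96-well plates exposed to compound for 48 hours at five concentrations. GI50 = concentration required for 50% inhibition of growth.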 Calls of active or inactive are those of the source. Rule as the data show it: active = GI50 up to about 1.1 µM and inactive = higher.

How the values were obtained:
Assay in all cases: NCI anticancer screen, dose series, 48 h
HT-29 = tested on: HT-29
CAKI-1 = tested on: CAKI-1
SF-295 = tested on: SF-295
TK-10 = tested on: TK-10
U-251 = tested on: U-251
LOX IMVI = tested on: LOX IMVI
OVCAR-3 = tested on: OVCAR-3
HL-60 = tested on: HL-60
SK-MEL-5 = tested on: SK-MEL-5
NCI-H460 = tested on: NCI-H460
MOLT-4 = tested on: MOLT-4
Malme-3M = tested on: Malme-3M
UACC-257 = tested on: UACC-257
OVCAR-5 = tested on: OVCAR-5
HCT-116 = tested on: HCT-116
786-0 = tested on: 786-0
KM12 = tested on: KM12
OVCAR-4 = tested on: OVCAR-4
DU-145 = tested on: DU-145
MDA-MB-435 = tested on: MDA-MB-435

Measured: GI50

COc1ccccc1C1C(C(=O)O)=C(CO)Oc2cc3c(cc21)OCO3 (configuration not stated)
inactive: HT-29 > 100 µM | CAKI-1 > 100 µM | SF-295 > 100 µM | TK-10 > 100 µM | U-251 > 100 µM | LOX IMVI > 100 µM | OVCAR-3 > 100 µM | HL-60 > 100 µM | SK-MEL-5 > 100 µM | NCI-H460 > 100 µM | MOLT-4 > 100 µM | Malme-3M > 100 µM

CCOC(=O)C1=C(Nc2ccccc2)OC/C1=N\NC(=O)Cc1ccccc1
inactive: HT-29 > 50 µM | CAKI-1 > 50 µM | SF-295 > 50 µM | UACC-257 > 50 µM | OVCAR-5 > 50 µM | TK-10 > 50 µM | HCT-116 > 50 µM | U-251 > 50 µM | LOX IMVI > 50 µM | OVCAR-3 > 50 µM | HL-60 > 50 µM | SK-MEL-5 > 50 µM | NCI-H460 > 50 µM | MOLT-4 > 50 µM | 786-0 > 50 µM | KM12 > 50 µM | OVCAR-4 > 50 µM | Malme-3M > 50 µM

Cc1cc(C(C)(C)C)cc(Cc2cc(C(C)(C)C)cc(Cc3cc(C(C)(C)C)cc(C)c3O)c2O)c1O
inactive: HT-29 11.7 µM | CAKI-1 12.6 µM | SF-295 16 µM | UACC-257 8.45 µM | OVCAR-5 17.5 µM | TK-10 16.3 µM | HCT-116 3.13 µM | U-251 4.07 µM | LOX IMVI 7.73 µM | OVCAR-3 4.75 µM | HL-60 3.71 µM | SK-MEL-5 10 µM | NCI-H460 10.1 µM | MOLT-4 3.04 µM | 786-0 5.64 µM | KM12 9.66 µM | OVCAR-4 7.5 µM | Malme-3M 10.7 µM

CCCCN(CCCC)C(=O)C(=O)C(C#N)c1ccc(C)cc1 (configuration not stated)
inactive: HT-29 > 100 µM | CAKI-1 > 100 µM | SF-295 > 100 µM | UACC-257 > 100 µM | OVCAR-5 > 100 µM | TK-10 > 100 µM | HCT-116 > 100 µM | U-251 > 100 µM | LOX IMVI > 100 µM | OVCAR-3 > 100 µM | HL-60 > 100 µM | SK-MEL-5 > 100 µM | NCI-H460 > 100 µM | MOLT-4 > 100 µM | 786-0 > 100 µM | KM12 > 100 µM | OVCAR-4 > 100 µM | Malme-3M > 100 µM

CC1CN=C(N(C(=O)Nc2ccc(Cl)c(Cl)c2)c2ccccc2)S1 (configuration not stated)
inactive: HT-29 34.8 µM | DU-145 91.8 µM | CAKI-1 77.6 µM | SF-295 75.7 µM | UACC-257 68.5 µM | OVCAR-5 > 100 µM | TK-10 38.9 µM | HCT-116 42.6 µM | U-251 53.5 µM | LOX IMVI 28.7 µM | OVCAR-3 68.1 µM | HL-60 > 10 µM | SK-MEL-5 20.7 µM | NCI-H460 43.4 µM | MOLT-4 > 100 µM | 786-0 43.4 µM | KM12 32.1 µM | OVCAR-4 41.4 µM | Malme-3M 76.7 µM

CCC1=CCN(c2cc(C)ccn2)OC1c1ccc(OC)cc1 (configuration not stated)
inactive: HT-29 21.6 µM | CAKI-1 34.4 µM | SF-295 22.2 µM | UACC-257 23.6 µM | OVCAR-5 26.5 µM | HCT-116 21.2 µM | U-251 21.5 µM | LOX IMVI 30.1 µM | OVCAR-3 42.7 µM | HL-60 22.5 µM | SK-MEL-5 16.9 µM | NCI-H460 31.7 µM | MOLT-4 26.9 µM | 786-0 34.8 µM | KM12 31.2 µM | OVCAR-4 34.8 µM | Malme-3M 27 µM

CCCc1c(C(=O)OCC)[nH]c(-c2ccc(-c3[nH]c(C(=O)OCC)c(CCC)c3C(=O)OCC)o2)c1C(=O)OCC
inactive: HT-29 > 100 µM | CAKI-1 > 100 µM | SF-295 > 100 µM | UACC-257 > 100 µM | OVCAR-5 > 100 µM | TK-10 > 100 µM | HCT-116 > 100 µM | U-251 > 100 µM | LOX IMVI > 100 µM | OVCAR-3 > 100 µM | HL-60 > 100 µM | SK-MEL-5 > 100 µM | NCI-H460 > 100 µM | MOLT-4 > 100 µM | 786-0 > 100 µM | KM12 > 100 µM | OVCAR-4 > 100 µM | Malme-3M > 100 µM

Cn1c(=O)c2c(nc(N/N=C3/SCC(=O)N3Cc3ccccc3)n2C)n(C)c1=O
inactive: HT-29 48.4 µM | DU-145 > 100 µM | CAKI-1 > 100 µM | SF-295 > 100 µM | UACC-257 > 100 µM | OVCAR-5 > 100 µM | TK-10 > 100 µM | HCT-116 > 100 µM | U-251 54.6 µM | OVCAR-3 20.9 µM | SK-MEL-5 34 µM | NCI-H460 38 µM | 786-0 > 100 µM | KM12 94.2 µM | OVCAR-4 26.4 µM | MDA-MB-435 > 100 µM | Malme-3M > 100 µM
